What was measured:
[1] = test system: LPS Induced TNF-α in Human Blood; test: LPS induced TNF-α in human whole blood; format: cell-based; conditions: LPS 0.5 ng/ml overnight, read-out: Human Whole Blood Assays (IC5050), TNFα LPS
Experimental: (§1) To assess the effect of whole blood on the potency of compound I-1 and Comparison-1, the compounds were evaluated for their inhibitory potential on TLR dependent cytokine release in human blood. Freshly drawn peripheral blood from healthy volunteers was incubated with test compound and stimulated overnight with LPS or Gardiquimod. The serum was isolated after centrifugation and TNF-α and IL-6 were measured by ELISA.
Whole blood of healthy volunteers was collected in Vacutainer containing Sodium Heparin and plate 40 μL of blood to each well. Compound was serially diluted in DMSO from 2 mM in 3-fold dilutions, and then diluted 1:100 in media with 10% FBS. 50 μL of 2× compound was added per well in duplicate to each well and incubate for one hour. 10 μL LPS was added to each well at a final concentration of 0.5 ng/ml and allow cells to incubate overnight.
100 μL of PBS was added to each well and centrifuged for 10 minutes at 1000 RPM. 25 μL of supernatant were taken, and TNF-α was measured on Luminex Flexmap 3d.

[2] = Plasma protein binding, equilibrium dialysis (RED), rat; format: in vitro ADME; conditions: for recovery at 5 μM / fraction unbound at 5 μM: Rat plasma, drug 5 μM; for fraction unbound at 5 μM: read-out: % bound (converted); for Free Fraction in Whole Blood Assay, Rat: plasma free fraction
Experimental: (§2) Brain and plasma drug binding were performed by equilibrium dialysis using the Rapid Equilibrium Dialysis (RED) device. Briefly, 300 μL of plasma or brain homogenate (1 brain/3 buffer) containing drug (5 μM) was equilibrated (4-18 h) against 500 μL of buffered saline. After incubation, the concentration of drug in plasma/brain homogenate and buffer was determined by LC-MS/MS.
(§3) Recovery is calculated by determining the total amount of drug in 50 μL of plasma and 50 μL buffer after the incubation and comparing that value to the amount of drug in 50 μL of a plasma sample that was not incubated. For the protein binding assay, drug was added to the plasma and this plasma was added to one side of the dialysis device while buffer was added to the other. After filing the plasma chamber of the equilibrium device, a 50 μL aliquot of plasma was mixed with 50 μL of buffer and then quenched with stop reagent. Drug recovery=(Drug buffer+Drug plasma)/(drug in initial plasma)

[3] = Plasma protein binding, equilibrium dialysis (RED), human; format: in vitro ADME; conditions: for recovery at 5 μM / fraction unbound at 5 μM: Human plasma, drug 5 μM; for fraction unbound at 5 μM: read-out: % bound (converted); for Free Fraction in Whole Blood Assay, Human: plasma free fraction
Experimental: as §2, §3

[4] = Plasma protein binding, equilibrium dialysis (RED), monkey; format: in vitro ADME; conditions: drug 5 μM; for fraction unbound at 5 μM: read-out: % bound (converted); for recovery at 5 μM: value above 100% due to experimental error (footnote)
Experimental: as §2, §3

[5] = test system: TLR dependent cytokine release in human blood; test: Human whole blood assays, average of IL-6 Gard and TNFα LPS; format: cell-based; conditions: read-out: Human Whole Blood Assays (IC5050), Average
Experimental: as §1

[6] = test system: TLR4-induced TNF-α production by human THP-1 cells; test: TLR4-induced TNF-α in THP-1 cells; format: cell-based
Experimental: THP-1 cells (100K in 100 μL/well) were primed with 25 ng/mL IFN-γ for 18 hours at 37° C., 5% CO2. Compound was serially diluted in DMSO from 2.5 mM in 4-fold dilutions, and then diluted 1:125 in RPMI 1640 complete media with 10% FBS. 100 μL/well 2× compound was mixed with the 100 μL/well IFN-7 primed THP-1 in 96 well flat-bottom white tissue culture plates. The cells were pre-incubated with compound for 1 hour at 37° C., 5% CO2 and before addition of 10 μL/well 21×LPS to give a final concentration of […] for LPS. The cells were stimulated with LPS for 18 hours at 37° C., 5% CO2. After centrifugation, 100 μL/well supernatant was extracted by using a multichannel pipette. IL-23p19 or TNF-α protein in the supernatant were measured by sandwich ELISA. The remaining IFN-7 primed THP-1 cell pellets were used to perform cell viability assays to determine compound cell toxicity. The plates were read with a luminometer, and the chemiluminescence values were entered into Athena (Rigel) for curve fitting, EC50 calculation, and database storage.

[7] = test system: TLR2-induced TNF-α production in human primary dendritic cells (DC); test: TLR2-induced TNF-α in human primary dendritic cells; format: cell-based
[8] = test system: TLR4-dependent cytokine production in mouse macrophages; test: TLR4-dependent cytokine production in mouse macrophages; format: cell-based
[9] = test system: IL-10-induced production of the cytokine IL-6 in primary human endothelial cells; test: IL-6 production in primary human endothelial cells; format: cell-based
[10] = biological target: IRAK1 (Homo sapiens, UniProt P51617); test: IRAK1 ADP-Glo kinase assay; format: biochemical; conditions: read-out: IRAK1 ADP-Glo Kinase, 8 pt EC50
Chain of IRAK1 (P51617 whole entry): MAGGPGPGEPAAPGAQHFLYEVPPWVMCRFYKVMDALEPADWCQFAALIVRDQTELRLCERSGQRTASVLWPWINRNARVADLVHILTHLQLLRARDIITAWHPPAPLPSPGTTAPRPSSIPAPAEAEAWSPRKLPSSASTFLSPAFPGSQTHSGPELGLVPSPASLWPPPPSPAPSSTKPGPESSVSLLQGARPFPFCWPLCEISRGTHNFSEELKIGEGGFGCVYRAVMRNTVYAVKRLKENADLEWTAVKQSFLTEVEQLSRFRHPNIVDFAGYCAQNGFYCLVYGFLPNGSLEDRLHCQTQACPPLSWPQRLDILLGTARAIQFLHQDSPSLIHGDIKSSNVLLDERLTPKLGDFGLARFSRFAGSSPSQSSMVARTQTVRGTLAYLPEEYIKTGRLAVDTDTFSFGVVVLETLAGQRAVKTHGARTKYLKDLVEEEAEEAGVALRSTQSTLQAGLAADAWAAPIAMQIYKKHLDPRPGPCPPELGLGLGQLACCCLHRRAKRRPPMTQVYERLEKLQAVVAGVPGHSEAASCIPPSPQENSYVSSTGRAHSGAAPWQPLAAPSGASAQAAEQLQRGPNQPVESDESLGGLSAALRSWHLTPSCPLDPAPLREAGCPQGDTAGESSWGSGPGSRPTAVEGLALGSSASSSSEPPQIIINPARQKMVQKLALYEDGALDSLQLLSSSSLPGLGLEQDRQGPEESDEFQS

Compound	IC50 [1] [nM]	recovery at 5 μM [2] [%]	fraction unbound at 5 μM [2]	Free Fraction in Whole Blood Assay, Rat [2] [%]	recovery at 5 μM [3] [%]	fraction unbound at 5 μM [3]	Free Fraction in Whole Blood Assay, Human [3] [%]	fraction unbound at 5 μM [4]	recovery at 5 μM [4] [%]	IC50 [5] [nM]	TLR4-induced TNF-α production by human THP-1 cells [6]	times more free than Comparison-1 (free drug) ([3]; in rat, dog, monkey and human proteins)	TLR2-induced TNF-α production in human primary dendritic cells (DC) [7]	TLR4-dependent cytokine production in mouse macrophages [8]	IL-10-induced production of the cytokine IL-6 in primary human endothelial cells [9]	EC50 [10] [nM]
CCO[C@H]1CC[C@H](n2cc(NC(=O)c3csc(-c4cn[nH]c4)n3)c(-c3nc(F)ccc3F)n2)CC1 [Comparison-1, reference compound]	1400	68.3	0.007	0.7	75.5	0.004	0.4	0.003	71.6	1400	–	–	–	–	–	–
CCO[C@H]1CC[C@H](n2cc(NC(=O)c3csc(-c4cn[nH]c4)n3)c(-c3ncccn3)n2)CC1 [Compound I-1, N-(1-((1r,4r)-4-ethoxycyclohexyl)-3-(pyrimidin-2-yl)-1H-pyrazol-4-yl)-2-(1H-pyrazol-4-yl)thiazole-4-carboxamide]	224	73.9	0.037	3.7	77.1	0.03	3.0	0.017	104	174	inhibits	approximately 6 times	blocks	potent inhibitor	potently inhibits	8.1

From patent US12384775B2, “Pyrimid-2-yl-pyrazole compounds as IRAK inhibitors” (Rigel Pharmaceuticals, Inc., priority 2022, dated 2025)
